≈ marks a conversion by molar mass, not a printed value.
Tests used:
Kinetic Solubility Assay = assay type: physicochemical; details: aqueous buffer, kinetic from dmso stock, kinetic solubility in PBS (pH 4.0 and pH 7.4 in method; pH of table values not stated), RT
Method: Stock solutions of test compounds are prepared in DMSO at the concentration of 10 mM, and a stock solution of control compound is prepared in DMSO at the concentration of 30 mM. Diclofenac is used as positive control in the assay. 30 μL stock solution of each compound is placed into their a 96-well rack, followed by adding 970 μL of PBS at pH 4.0 and pH 7.4 into each vial of the cap-less solubility sample plate. This study is performed in duplicate. One stir stick is added to each vial and then vials are sealed using a molded PTDE/SIL 96-Well Plate Cover. The solubility sample plate is transferred to the Thermomixer comfort plate shaker and incubated at RT for 2 hours with shaking at 1100 rpm. After 2 hours incubation, stir sticks are removed using a big magnet and all samples from the solubility sample plate are transferred into the filter plate. All the samples are filtered by vacuum manifold. The filtered samples are diluted with methanol. Samples are analyzed by LC-MS/MS and quantified against a standard of known concentration in DMSO using LC coupled with Mass spectral peak identification and quantitation. The solubility values of the test compounds are calculated as follows, wherein INJ VOL is injection volume, DF is dilution factor, and STD is standard: […]

Caco2 Permeability Assay = assay type: in vitro ADME; details: human; for efflux ratio at 2 h, 5 μM: pH 7.4, Caco-2, 5 μM, read-out: Efflux Ratio (ER); for Papp A→B at 2 h, 5 μM: pH 7.4, Caco-2, apical to basolateral
Method: Preparation of Caco-2 Cells: 50 μL and 25 mL of cell culture medium are added to each well of a Transwell® insert and reservoir, respectively. Then, the HTS Transwell® plates are incubated at 37° C., 5% CO2 for 1 hour before cell seeding. Caco-2 cell cells are diluted to 6.86×10^5 cells/mL with culture medium, and 50 μL of cell suspension are dispensed into the filter well of the 96-well HTS Transwell® plate. Cells are cultivated for 14-18 days in a cell culture incubator at 37° C., 5% CO2, 95% relative humidity. Cell culture medium is replaced every other day, beginning no later than 24 hours after initial plating.
Preparation of Stock Solutions: 10 mM stock solutions of test compounds are prepared in DMSO. The stock solutions of positive controls are prepared in DMSO at the concentration of 10 mM. Digoxin and propranolol are used as control compounds in this assay.
Assessment of Cell Monolayer Integrity: Medium is removed from the reservoir and each Transwell® insert and is replaced with prewarmed fresh culture medium. Transepithelial electrical resistance (TEER) across the monolayer is measured using Millicell Epithelial Volt-Ohm measuring system (Millipore, USA). The Plate is returned to the incubator once the measurement is done. The TEER value is calculated according to the following equation: TEER measurement (ohms)×Area of membrane (cm^2)=TEER value (ohm⋅cm^2). A TEER value greater than 230 ohm⋅cm^2 indicates a well-qualified Caco-2 monolayer.
Assay Procedure: The Caco-2 plate is removed from the incubator and washed twice with pre-warmed HBSS (10 mM HEPES, pH 7.4), and then incubated at 37° C. for 30 minutes. The stock solutions of control compounds are diluted in DMSO to get 1 mM solutions and then diluted with HBSS (10 mM HEPES, pH 7.4) to get 5 μM working solutions. The stock solutions of the test compounds are diluted in DMSO to get 1 mM solutions and then diluted with HBSS (10 mM HEPES and 4% BSA, pH 7.4) to get 5 μM working solutions. The final concentration of DMSO in the incubation system is 0.5%. To determine the rate of drug transport in the apical to basolateral direction. 75 μL of 5 μM working solutions of test compounds are added to the Transwell® insert (apical compartment) and the wells in the receiver plate (basolateral compartment) are filled with 235 μL of HBSS (10 mM HEPES and 4% BSA, pH 7.4). To determine the rate of drug transport in the basolateral to apical direction, 235 μL of 5 μM working solutions of test compounds are added to the receiver plate wells (basolateral compartment) and then the Transwell® inserts (apical compartment) are filled with 75 μL of HBSS (10 mM HEPES and 4% BSA, pH 7.4). Time 0 samples are prepared by transferring 50 μL of 5 μM working solution to wells of the 96-deepwell plate, followed by the addition of 200 μL cold methanol containing appropriate internal standards (IS). The plates are incubated at 37° C. for 2 hours. At the end of the incubation, 50 μL samples from donor sides (apical compartment for Ap→*Bl flux, and basolateral compartment for Bl→Ap) and receiver sides (basolateral compartment for Ap→Bl flux, and apical compartment for Bl→Ap) are transferred to wells of a new 96-well plate, followed by the addition of 4 volume of cold acetonitrile or methanol containing appropriate internal standards (IS). Samples are vortexed for 5 minutes and then centrifuged at 3,220 g for 40 minutes. An aliquot of 100 μL of the supernatant is mixed with an appropriate volume of ultra-pure water before LC-MS/MS analysis. To determine the Lucifer Yellow leakage after 2 hour transport period, stock solution of Lucifer yellow is prepared in ultra-pure water and diluted with HBSS (10 mM HEPES, pH 7.4) to reach the final concentration of 100 μM. 100 μL of the Lucifer yellow solution is added to each Transwell® insert (apical compartment), followed by filling the wells in the receiver plate (basolateral compartment) with 300 μL of HBSS (10 mM HEPES, pH 7.4). […]

| Compound | solubility at 2 h (Kinetic Solubility Assay) [µM] | efflux ratio at 2 h, 5 μM (Caco2 Permeability Assay) | Papp A→B at 2 h, 5 μM (Caco2 Permeability Assay) [nm/s] |
| --- | --- | --- | --- |
| CN(C)C(=O)Nc1cc(Oc2cnc3nc(Nc4cc5n(n4)CCC54CCC4)n(C)c3c2C#N)ccn1 [Example I-56, 3-(4-((7-cyano-2-((5′,6′-dihydrospiro[cyclobutane-1,4′-pyrrolo[1,2-b]pyrazol]-2′-yl)amino)-1-methyl-1H-imidazo[4,5-b]pyridin-6-yl)oxy)pyridin-2-yl)-1,1-dimethylurea] | 9 to 100 (≈ 4.49 to 49.9 µg/mL) | ≤ 2 | 50 |
| COC(=O)Nc1cc(Oc2cnc3nc(Nc4cc5n(n4)CCC54CCC4)n(C)c3c2C#N)ccn1 [Example I-57, methyl(4-((7-cyano-2-((5′,6′-dihydrospiro[cyclobutane-1,4′-pyrrolo[1,2-b]pyrazol]-2′-yl)amino)-1-methyl-1H-imidazo[4,5-b]pyridin-6-yl)oxy)pyridin-2-yl)carbamate] | 0.1 to 9 (≈ 0.0486 to 4.37 µg/mL) | ≤ 2 | 50 |
| CO[C@@H]1CCN(C(=O)Nc2cc(Oc3cnc4nc(Nc5cc6n(n5)CCC65CCC5)n(C)c4c3C#N)ccn2)C1 [Example I-60, (R)-N-(4-((7-cyano-2-((5′,6′-dihydrospiro[cyclobutane-1,4′-pyrrolo[1,2-b]pyrazol]-2′-yl)amino)-1-methyl-1H-imidazo[4,5-b]pyridin-6-yl)oxy)pyridin-2-yl)-3-methoxypyrrolidine-1-carboxamide] | 9 to 100 (≈ 4.99 to 55.5 µg/mL) | ≤ 2 | 60 |
| COC1CN(C(=O)Nc2cc(Oc3cnc4nc(Nc5cc6n(n5)CCC65CCC5)n(C)c4c3C#N)ccn2)C1 [Example I-61, N-(4-((7-cyano-2-((5′,6′-dihydrospiro[cyclobutane-1,4′-pyrrolo[1,2-b]pyrazol]-2′-yl)amino)-1-methyl-1H-imidazo[4,5-b]pyridin-6-yl)oxy)pyridin-2-yl)-3-methoxyazetidine carboxamide] | 0.1 to 9 (≈ 0.0541 to 4.87 µg/mL) | 2 to 5 | 30 |
| COCCOC(=O)Nc1cc(Oc2cnc3nc(Nc4cc5n(n4)CCC54CCC4)n(C)c3c2C#N)ccn1 [Example I-62, 2-methoxyethyl(4-((7-cyano-2-((5′,6′-dihydrospiro[cyclobutane-1,4′-pyrrolo[1,2-b]pyrazol]-2′-yl)amino)-1-methyl-1H-imidazo[4,5-b]pyridin-6-yl)oxy)pyridin-2-yl)carbamate] | 0.1 to 9 (≈ 0.053 to 4.77 µg/mL) | ≤ 2 | 50 |
| COCC(=O)Nc1cc(Oc2cnc3nc(Nc4cc(C(F)(F)F)cn(C)c4=O)n(C)c3c2Cl)ccn1 [Example I-75, N-(4-((7-chloro-1-methyl-2-((1-methyl-2-oxo-5-(trifluoromethyl)-1,2-dihydropyridin-3-yl)amino)-1H-imidazo[4,5-b]pyridin-6-yl)oxy)pyridin-2-yl)-2-methoxyacetamide] | 0.1 to 9 (≈ 0.0538 to 4.84 µg/mL) | ≤ 2 | 120 |
| COCC(=O)Nc1cc(Oc2cnc3nc(Nc4cc(C(F)(F)F)cn(C)c4=O)n(C)c3c2C#N)ccn1 [Example I-79, N-(4-((7-cyano-1-methyl-2-((1-methyl-2-oxo-5-(trifluoromethyl)-1,2-dihydropyridin-3-yl)amino)-1H-imidazo[4,5-b]pyridin-6-yl)oxy)pyridin-2-yl)-2-methoxyacetamide] | 0.1 to 9 (≈ 0.0528 to 4.76 µg/mL) | ≤ 2 | 150 |
| CC(=O)Nc1cc(Oc2cnc3nc(Nc4cc(C(F)(F)F)cn(C)c4=O)n(C)c3c2Cl)c(F)cn1 [Example I-88, N-(4-((7-chloro-1-methyl-2-((1-methyl-2-oxo-5-(trifluoromethyl)-1,2-dihydropyridin-3-yl)amino)-1H-imidazo[4,5-b]pyridin-6-yl)oxy)-5-fluoropyridin-2-yl)acetamide] | 0.1 to 9 (≈ 0.0526 to 4.73 µg/mL) | ≤ 2 | 50 |
| CC(=O)Nc1cc(Oc2cnc3nc(Nc4cc5n(n4)CCCC54CC4)n(C)c3c2C#N)ccn1 [Example I-114, N-(4-((7-cyano-2-((6′,7′-dihydro-5′H-spiro[cyclopropane-1,4′-pyrazolo[1,5-a]pyridin]-2′-yl)amino)-1-methyl-1H-imidazo[4,5-b]pyridin-6-yl)oxy)pyridin-2-yl)acetamide] | 9 to 100 (≈ 4.23 to 47 µg/mL) | ≤ 2 | 40 |
| CC(=O)Nc1cc(Oc2cnc3nc(Nc4cc5n(n4)CCOCC5(C)C)n(C)c3c2C#N)ccn1 [Example I-118, N-(4-((7-cyano-2-((4,4-dimethyl-4,5,7,8-tetrahydropyrazolo[1,5-d][1,4]oxazepin-2-yl)amino)-1-methyl-1H-imidazo[4,5-b]pyridin-6-yl)oxy)pyridin-2-yl)acetamide] | 9 to 100 (≈ 4.39 to 48.8 µg/mL) | 2 to 5 | 50 |
| Cn1c(Nc2cc3n(n2)CCC32CCC2)nc2ncc(Oc3ccnc(NC(=O)C4CC4)c3)c(C#N)c21 [Example I-122, N-(4-((7-cyano-2-((5′,6′-dihydrospiro[cyclobutane-1,4′-pyrrolo[1,2-b]pyrazol]-2′-yl)amino)-1-methyl-1H-imidazo[4,5-b]pyridin-6-yl)oxy)pyridin-2-yl)cyclopropanecarboxamide] | 0.1 to 9 (≈ 0.0496 to 4.46 µg/mL) | 2 to 5 | 20 |
| CCN1CCN(Cc2ccc(Nc3nc4ccc(Oc5ccnc(NC(C)=O)c5)cc4n3C)cc2C(F)(F)F)CC1 [Example R-1, reference compound] | 100 to 200 (≈ 56.8 to 114 µg/mL) | 10 to 30 | 4 |
